Values quoted from earlier work, collected in patent US12029740B2 (NANOCOPOEIA, LLC, priority 2020, dated 2024).
Where a name gives a salt, the structure may show the parent alone.

Key:
[1] = low/moderate aqueous solubility and low permeability

| Structure (SMILES) | solubility with increasing pH | Biopharmaceutical Classification System (BCS) class [1] |
| --- | --- | --- |
| Cc1cn(-c2cc(NC(=O)c3ccc(C)c(Nc4nccc(-c5cccnc5)n4)c3)cc(C(F)(F)F)c2)cn1 [nilotinib, 4-methyl-N-[3-(4-methyl-1H-imidazol-1-yl)-5-(trifluoromethyl)phenyl]-3-[[4-(3-pyridinyl)-2-pyrimidinyl]amino]-benzamide] | significantly decreases | – |
| Cc1cn(-c2cc(NC(=O)c3ccc(C)c(Nc4nccc(-c5cccnc5)n4)c3)cc(C(F)(F)F)c2)cn1 [Nilotinib monohydrochloride monohydrate] | – | Class IV |
